{"source": "patent US12077503B2", "about": "“Substituted cyclic amides and their use as herbicides” (FMC CORPORATION, priority 2015, dated 2024)", "format_in_all_cases": "in vivo", "key": {"[1]": {"test_system": "green foxtail (Setaria viridis)", "experiment": "Test A preemergence", "settings": "0 to 100 scale where 0 is no effect and 100 is complete control", "summary_of_the_method": "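Preemergence directed soil spray on seeded pots, or postemergence application to plants 2–10 cm, one- to two-leaf. Solvent mixture non-phytotoxic, with surfactant. Scored ~10 d later, visually, 0–100 vs untreated.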"}, "[2]": {"test_system": "lambsquarters (Chenopodium album)", "experiment": "Test D preemergence", "settings": "scale 0 to 100", "summary_of_the_method": "(§1)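 Test chemicals, formulated in a non-phytotoxic solvent blend including surfactant, are applied preemergence to seeded silt loam soil. Response is judged visually against controls after approximately 21 d in a controlled environment, on a scale where 0 is no effect and 100 is complete control.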"}, "[3]": {"test_system": "barley, winter (winter barley Hordeum vulgare)", "experiment": "Test D preemergence", "settings": "scale 0 to 100", "summary_of_the_method": "as §1"}, "[4]": {"test_system": "windgrass (Apera spica-venti)", "experiment": "Test D preemergence", "settings": "scale 0 to 100", "summary_of_the_method": "as §1"}, "[5]": {"test_system": "blackgrass (Alopecurus myosuroides)", "experiment": "Test D preemergence", "settings": "scale 0 to 100", "summary_of_the_method": "as §1"}, "[6]": {"test_system": "field poppy (Papaver rhoeas)", "experiment": "Test D preemergence", "settings": "scale 0 to 100", "summary_of_the_method": "as §1"}, "[7]": {"test_system": "field violet (Viola arvensis)", "experiment": "Test D preemergence", "settings": "scale 0 to 100", "summary_of_the_method": "as §1"}, "[8]": {"test_system": "canarygrass (littleseed canarygrass, Phalaris minor)", "experiment": "Test D preemergence", "settings": "scale 0 to 100", "summary_of_the_method": "as §1"}, "[9]": {"test_system": "bluegrass (annual bluegrass, Poa annua)", "experiment": "Test D preemergence", "settings": "scale 0 to 100", "summary_of_the_method": "as §1"}, "[10]": {"test_system": "foxtail, green (green foxtail, Setaria viridis)", "experiment": "Test D preemergence", "settings": "scale 0 to 100", "summary_of_the_method": "as §1"}, "[11]": {"test_system": "beggarticks (hairy beggarticks, Bidens pilosa)", "experiment": "Test E preemergence", "settings": "scale 0 to 100", "description": "Seeds of plant species selected from corn (Zea mays), soybean (Glycine max), velvetleaf (Abutilon theophrasti), lambsquarters (Chenopodium album), poinsettia, wild (wild poinsettia, Euphorbia heterophylla), pigweed, palmer (palmer pigweed, Amaranthus palmeri), waterhemp (common waterhemp, Amaranthus rudis), surinam grass (Brachiaria decumbens), crabgrass, large (large crabgrass, Digitaria sangumnalis), crabgrass, Brazil (Brazilian crabgrass, Digitaria horizontalis), Panicum, fall (fall Panicum, Panicum dichotomiflorum), foxtail, giant (giant foxtail, Setaria faberii), foxtail, green (green foxtail, Setaria viridis), goosegrass (Eleusine indica), johnsongrass (Sorghum halepense), ragweed (common ragweed, Ambrosia elatior), barnyardgrass (Echinochloa crus-galli), sandbur (southern sandbur, Cenchrus echinatus), arrowleaf Sida (Sida rhombifolia), ryegrass, Italian (Italian ryegrass, Lolium multiflorum), dayflower, VA (Virginia dayflower, Commelina virginica), field bindweed (Convolvulus arvensis), morningglory (Ipomoea coccinea), nightshade (eastern black nightshade, Solanum ptycanthum), Kochia (Kochia scoparia), nutsedge, yellow (yellow nutsedge, Cyperus esculentus), horseweed (Conyza canadensis), and beggarticks (hairy beggarticks, Bidens pilosa), were planted into a silt loam soil and treated preemergence with test chemicals formulated in a non-phytotoxic solvent mixture which included a surfactant.\nAt the same time, plants selected from these crop and weed species were planted in pots containing Sunshine Redi-Earth planting medium comprising spaghnum peat moss, vermiculite, starter nutrients and dolomitic limestone and treated with postemergence applications of a test chemical formulated in the same manner. Plants ranged in height from 2 to 18 cm (1- to 4-leaf stage) for postemergence treatments. Treated plants and controls were maintained in a greenhouse for 14 to 21 d, after which time all species were compared to controls and visually evaluated. Plant response ratings, summarized in Table E, are based on a scale of 0 to 100 where 0 is no effect and 100 is complete control. A dash (-) response means no test result."}, "[12]": {"settings": "125 g ai/ha, preemergence, approx. 10 d"}}}
{"smiles": "COc1cccc([C@H]2CN(C)C(=O)[C@@H]2C(=O)Nc2ccc(F)c(F)c2F)c1", "note": "[Compound 1063]", "values": [{"measurement": "Foxtail, Green plant response rating", "setting": "[1]; 31 g ai/ha, Preemergence", "result": 100}, {"measurement": "Foxtail, Green plant response rating", "setting": "[1]; [12]", "result": 100}]}
{"smiles": "CN1CC(c2cccc(C(F)(F)F)c2)C(C(=O)Nc2cccc(F)c2F)C1=O", "note": "(centres unmarked) [Compound 636]", "values": [{"measurement": "Plant response rating: Lambsquarters", "setting": "[2]; 31 g ai/ha", "result": 35}, {"measurement": "Plant response rating: Lambsquarters", "setting": "[2]; 62 g ai/ha", "result": 70}, {"measurement": "Plant response rating: Lambsquarters", "setting": "[2]; 125 g ai/ha", "result": 80}, {"measurement": "Plant response rating: Lambsquarters", "setting": "[2]; 250 g ai/ha", "result": 90}, {"measurement": "Plant response rating: Barley, Winter", "setting": "[3]; 31 g ai/ha", "result": 5}, {"measurement": "Plant response rating: Barley, Winter", "setting": "[3]; 62 g ai/ha", "result": 45}, {"measurement": "Plant response rating: Barley, Winter", "setting": "[3]; 125 g ai/ha", "result": 55}, {"measurement": "Plant response rating: Barley, Winter", "setting": "[3]; 250 g ai/ha", "result": 80}, {"measurement": "Plant response rating: Windgrass", "setting": "[4]; 31 g ai/ha", "result": 85}, {"measurement": "Plant response rating: Windgrass", "setting": "[4]; 62 g ai/ha", "result": 95}, {"measurement": "Plant response rating: Windgrass", "setting": "[4]; 125 g ai/ha", "result": 95}, {"measurement": "Plant response rating: Windgrass", "setting": "[4]; 250 g ai/ha", "result": 98}, {"measurement": "Plant response rating: Blackgrass", "setting": "[5]; 31 g ai/ha", "result": 25}, {"measurement": "Plant response rating: Blackgrass", "setting": "[5]; 62 g ai/ha", "result": 30}, {"measurement": "Plant response rating: Blackgrass", "setting": "[5]; 125 g ai/ha", "result": 60}, {"measurement": "Plant response rating: Blackgrass", "setting": "[5]; 250 g ai/ha", "result": 75}, {"measurement": "Plant response rating: Field Poppy", "setting": "[6]; 31 g ai/ha", "result": 90}, {"measurement": "Plant response rating: Field Poppy", "setting": "[6]; 62 g ai/ha", "result": 95}, {"measurement": "Plant response rating: Field Poppy", "setting": "[6]; 125 g ai/ha", "result": 100}, {"measurement": "Plant response rating: Field Poppy", "setting": "[6]; 250 g ai/ha", "result": 100}, {"measurement": "Plant response rating: Field Violet", "setting": "[7]; 31 g ai/ha", "result": 0}, {"measurement": "Plant response rating: Field Violet", "setting": "[7]; 62 g ai/ha", "result": 0}, {"measurement": "Plant response rating: Field Violet", "setting": "[7]; 125 g ai/ha", "result": 35}, {"measurement": "Plant response rating: Field Violet", "setting": "[7]; 250 g ai/ha", "result": 85}, {"measurement": "Plant response rating: Canarygrass", "setting": "[8]; 31 g ai/ha", "result": 65}, {"measurement": "Plant response rating: Canarygrass", "setting": "[8]; 62 g ai/ha", "result": 85}, {"measurement": "Plant response rating: Canarygrass", "setting": "[8]; 125 g ai/ha", "result": 90}, {"measurement": "Plant response rating: Canarygrass", "setting": "[8]; 250 g ai/ha", "result": 95}, {"measurement": "Plant response rating: Bluegrass", "setting": "[9]; 31 g ai/ha", "result": 35}, {"measurement": "Plant response rating: Bluegrass", "setting": "[9]; 62 g ai/ha", "result": 95}, {"measurement": "Plant response rating: Bluegrass", "setting": "[9]; 125 g ai/ha", "result": 90}, {"measurement": "Plant response rating: Bluegrass", "setting": "[9]; 250 g ai/ha", "result": 100}, {"measurement": "Plant response rating: Foxtail, Green", "setting": "[10]; 31 g ai/ha", "result": 100}, {"measurement": "Plant response rating: Foxtail, Green", "setting": "[10]; 62 g ai/ha", "result": 100}, {"measurement": "Plant response rating: Foxtail, Green", "setting": "[10]; 125 g ai/ha", "result": 100}, {"measurement": "Plant response rating: Foxtail, Green", "setting": "[10]; 250 g ai/ha", "result": 100}, {"measurement": "Plant response rating: Beggarticks", "setting": "[11]; 31 g ai/ha", "result": 0}, {"measurement": "Plant response rating: Beggarticks", "setting": "[11]; 62 g ai/ha", "result": 0}, {"measurement": "Plant response rating: Beggarticks", "setting": "[11]; 125 g ai/ha", "result": 0}, {"measurement": "Plant response rating: Beggarticks", "setting": "[11]; 250 g ai/ha", "result": 0}]}
{"smiles": "COc1cccc([C@H]2CN(C)C(=O)[C@@H]2C(=O)Nc2cccc(F)c2F)c1", "note": "[Compound 1062]", "values": [{"measurement": "Foxtail, Green plant response rating", "setting": "[1]; 31 g ai/ha, Preemergence", "result": 100}, {"measurement": "Foxtail, Green plant response rating", "setting": "[1]; [12]", "result": 100}]}
